Measurements taken from publication PMC4604765, “Eye drop delivery of pigment epithelium-derived factor-34 promotes retinal ganglion cell neuroprotection and axon regeneration” (Molecular and Cellular Neurosciences, 2015).
Where two headings read alike, the source gives them in different places. No end group written: not given here.

How the values were obtained:
[1] = system: βIII-tubulin+ retinal neurons
Source text: (§1) For all in vitro experiments, adult 6–8-week-old female Sprague–Dawley rats weighing 170–220 g were used. Culture experiments included retinal cells treated with: (1), Neurobasal-A (NBA) alone (Control); and equimolar concentrations of (2), 2.16; (3) 5.4; (4), 10.8 and (5), 21.6 pM PEDF-34/-44; and (6), ciliary neurotrophic factor (CNTF: Peprotech, London, UK), as a positive control at an optimal neuroprotective/axogenic concentration of 440.5 pM, established by us previously ([Ahmed et al., 2009; Douglas et al., 2009]). […] All experiments were performed in triplicate and repeated on three independent occasions.
Mixed adult rat retinal cultures containing enriched populations of retinal neurons, including RGCs, were prepared from 6–8-week-old adult female Sprague–Dawley rats, as described previously ([Ahmed et al., 2006b, 2009, 2010; Douglas et al., 2009; Vigneswara et al., 2013]). Briefly, retinal cells were dissociated using a Papain dissociation kit according to the manufacturer's instructions (Worthington Biochemicals, Lakewood, NJ, USA). […]
The mean number of βIII-tubulin^+ neurons surviving, with neurites and the mean neurite length were quantified as described by us previously ([Vigneswara et al., 2013, 2014]). Briefly, chamber slides were anonymised by a second investigator and βIII-tubulin^+ neuronal soma and neurites quantified in 9 quadrants/well using Axiovision software (Version 4.8; Zeiss) and ImagePro (Version 6.3; Media Cybernetics, Bethesda, MD, USA). Of the 125,000 cells/well plated, the total numbers of neurons in each experiment were determined by βIII-tubulin^+ immunocytochemistry after allowing 30 min for cells to adhere to glass culture slides. […] Neurite outgrowth from at least 180 neurons/condition from the 9 wells was measured, except in control (NBA) cultures, in which a total of 108 neurons were measured.

[2] = system: βIII-tubulin+ retinal neurons; test: Neurite outgrowth in mixed adult rat retinal cultures (βIII-tubulin immunocytochemistry); format: cell-based
Source text: as §1
Mixed adult rat retinal cultures containing enriched populations of retinal neurons, including RGCs, were prepared from 6–8-week-old adult female Sprague–Dawley rats, as described previously ([Ahmed et al., 2006b, 2009, 2010; Douglas et al., 2009; Vigneswara et al., 2013]). Briefly, retinal cells were dissociated using a Papain dissociation kit according to the manufacturer's instructions (Worthington Biochemicals, Lakewood, NJ, USA). Retinal cells were plated at a density of 125 × 10^3/well in poly-D-lysine and laminin pre-coated 8-well chamber slides and cultured in NBA supplemented with B27 supplement (all from Invitrogen, Paisley, UK), with appropriate treatments for 4 days at 37 °C and 5% CO2 before fixation in 4% paraformaldehyde diluted in PBS for immunocytochemistry, as described previously ([Vigneswara et al., 2013, 2014]).
Fixed cells were washed in several changes of PBS before permeabilisation and blocking of non-specific antibody sites with PBS containing 3% bovine serum albumin (BSA) and 0.1% Triton X-100 (both from Sigma, Poole, UK). Cells were then incubated with monoclonal anti-βIII-tubulin antibody (1:200 dilution; Sigma) for 1 h at room temperature (RT) to detect retinal neurons and their neurites. Cells were then washed in several changes of PBS and incubated with Alexa 488 anti-mouse IgG (1:400 dilution; Invitrogen) for 1 h at RT. After washing in several changes of PBS and mounting in Vectamount containing DAPI (Vector Laboratories, Peterborough, UK), cells were then viewed using a Zeiss epi-fluorescent microscope equipped with an AxioCam HRc and Axiovision Image capture software (all from Zeiss, Hertfordshire, UK). Immunocytochemistry included controls with primary antibody omitted, to set background levels of nonspecific staining (not shown) before image capture.
The mean number of βIII-tubulin^+ neurons surviving, with neurites and the mean neurite length were quantified as described by us previously ([Vigneswara et al., 2013, 2014]). Briefly, chamber slides were anonymised by a second investigator and βIII-tubulin^+ neuronal soma and neurites quantified in 9 quadrants/well using Axiovision software (Version 4.8; Zeiss) and ImagePro (Version 6.3; Media Cybernetics, Bethesda, MD, USA). Of the 125,000 cells/well plated, the total numbers of neurons in each experiment were determined by βIII-tubulin^+ immunocytochemistry after allowing 30 min for cells to adhere to glass culture slides. This determines the number of neurons plated/well and is used in each experiment to work out the proportion of surviving βIII-tubulin^+ neurons. Neurite outgrowth from at least 180 neurons/condition from the 9 wells was measured, except in control (NBA) cultures, in which a total of 108 neurons were measured.

[3] = system: retinal ganglion cells (RGCs); test: RGC survival after optic nerve crush (FluroGold backfilling, retinal wholemounts); format: in vivo, rat; details: weekly intravitreal injection, 2.68 nM versus 1.88 nM, 21 days after ONC
Description: In a separate set of experiments comprising the same treatment groups, 6 rats/treatment (i.e. 12 eyes/optic nerves/treatment) were used to evaluate RGC axon regeneration by immunostaining with growth-associated protein-43 (GAP-43) in the optic nerve.
In further experiments, 12 rats (24 eyes/optic nerves)/treatment received 1.88 nM PEDF-34 eye drops daily. Six rats (12 eyes)/treatment were used to assess RGC survival at 21 days using FG backfilling, whilst the remaining 6 rats (12 eyes/optic nerves)/treatment were used to evaluate RGC axon regeneration at 21 days by GAP-43 immunohistochemistry. […]
Nineteen days after ONC, FG (Cambridge Biosciences, Cambridge, UK) was injected into the optic nerve, between the lamina cribrosa and the ONC site ([Vigneswara et al., 2013, 2014]). […] The identity of individual retinae was anonymised by a second investigator before image capture using a Zeiss epifluorescent microscope and the number of FG^+ RGCs counted in ImagePro Version 6.0 (Media Cybernetics) from captured images of 12 rectangular areas, 3 from each quadrant, placed at radial distances from the centre of the optic disc of the inner (1/6 eccentricity), midperiphery (1/2 eccentricity) and outer retina (5/6 eccentricity). The mean densities of FG^+ RGCs/mm^2 for each retina were determined.

[4] = Stability in culture media and on long-term storage; details: no data shown
[5] = single eye drop, ELISA
[6] = PEDF-34 versus equimolar PEDF-44, retinal cultures
[7] = 5.4 pM (peak), 4 days in culture

In the case of “DPFFKVPVNKLAAAVSNFGYDLYRVRSSTSPTTN [PEDF-34]”, the “fold increase in βIII-tubulin+ neuron numbers compared to untreated cultures” value ([1]; 5.4 pM, 4 days in culture) was 4.5 fold, the “more neuroprotective than PEDF-44 in vitro” value [1, 6] was 43% and the mean neurite length [2, 7] was 211 ± 23 μm. For the same sequence, the “mean proportion of βIII-tubulin+ neurons with neurites” value [2, 7] was 21 ± 2%, the “fold longer neurites than in CNTF cultures” value ([2]; PEDF-34 versus CNTF (440.5 pM)) was 2.2 fold and the “fold more βIII-tubulin+ neurons with neurites than in CNTF cultures” value ([2]; PEDF-34 versus CNTF (440.5 pM)) was 10.5 fold. For the same sequence, the “fold longer neurites than in PEDF-44 cultures” value ([2]; PEDF-34 versus PEDF-44) was 1.7 fold, the “fold more βIII-tubulin+ neurons with neurites than in PEDF-44 cultures” value ([2]; PEDF-34 versus PEDF-44) was 2.3 fold and the “more neuritogenic than PEDF-44 in vitro” value [2, 6] was 52%. The “fold longer neurites than in untreated cultures” value ([2]; PEDF-34 versus untreated) was 6.3 fold, the “fold more βIII-tubulin+ neurons with neurites than in untreated cultures” value ([2]; PEDF-34 versus untreated) was 21 fold and the “retinal neuron/RGC neuritogenesis/axogenesis compared to untreated controls” value ([2]; statement in discussion) was “Five-fold more”. For the same sequence, the “RGC survival on increasing the dose” value [3] was “did not improve”, the “stability in culture media” value ([4]; PEDF-34 compared with PEDF-44) was “equally stable” and the “neurotrophic properties after long-term storage” value [4] was “retained their neurotrophic properties”. For the same sequence, the “level of total PEDF in the retina” value ([5]; 1.88 nM dose (peak), 0.5 h) was 0.18 ± 0.007 nM, the “level of total PEDF in the vitreous” value ([5]; 1.88 nM dose (peak), 0.5 h, 6 animals (12 eyes)) was 0.42 ± 0.01 nM and the “peak level of total PEDF in the retina” value ([5]; 4 h) was 0.24 ± 0.005 nM. The “peak level of total PEDF in the vitreous” value ([5]; 4 h) was 0.39 ± 0.004 nM, the “peak level of total PEDF in the retina” value ([5]; 24 h) was 0.12 ± 0.002 nM and the “peak level of total PEDF in the vitreous” value ([5]; 24 h) was 0.21 ± 0.004 nM. The time to detection in vitreous body was under 30 min.
